Data reported in patent US20250062039A1, “ESTIMATION OF PHARMACOKINETIC (PK) PARAMETERS OF DRUG CANDIDATES USING UNIVERSAL PK PARAMETERS BOUNDS” (Tata Consultancy Services Limited, priority 2023, published 2025).
Several values for one entry are separate records, joined by “and”; a condition that tells them apart may be missing. Equal values may be shown once. Read-outs that look alike come from different tables or passages of the source.

Columns and labels:
clinical [1] = conditions: human, in vivo, iv
[2] = IV infusion 10 mg; cited from earlier work
[3] = 2 compartment model, cited from earlier work
clinical [4] = conditions: human, in vivo, iv; for half-life: Selected Parameter Value
[5] = cited from earlier work; for Conc (plasma concentration): 200 mg intravenously, subject 68 kg; for Alpha / A: individual subjects W
[6] = Published cocaine pharmacokinetics in humans, IV bolus: parameters and PCT profile (Barnett et al. 1981)
[7] = in vivo, iv, 20 mg/kg
in vivo = conditions: non-human primates, iv, 20 mg/kg
[8] = Three compartment PK model parameter estimation from etomidate PCT profile (64 bound combinations, MWDO + Nelder Mead); design: species or system humans
[9] = cited from earlier work; for Conc (plasma concentration): 18.3 mg intravenously, subject 60.9 kg
[10] = IV Infusion, 4 mg for 5 minutes
[11] = 200 mg IV, two compartment model
[12] = IV bolus, Dose = 100 mg, X, Y, listed as Cocain
[13] = IV bolus, Dose = 200 mg, Z, listed as Cocain
[14] = IVBolus 200 mg, bi-exponential model (Table 6)
[15] = MWDO, Upper Bound 1 of Table 18
[16] = MWDO, Upper Bound 2 of Table 18
[17] = MWDO, Upper Bound 3 of Table 18
[18] = Nelder Mead, bound combination 1
[19] = Nelder Mead, bound combination 2
[20] = Nelder Mead, bound combination 3
[21] = best set over all 64 bound combinations

In the case of `CC(C)NCC(O)COc1ccc(CCOCC2CC2)cc1` (stereo not drawn) [Betaxolol], the Vd (clinical [1]) is given as 5.81 L/kg, the clearance (clinical [1]) is given as 300 mL/min and the “AUC, Mean Value” [2] is given as 610 ng·h/mL. For the same molecule, the “CL, Mean Value” [2] was 15.1 L/h, the “Lambda_Z, Mean Value” [2] was 0.0415 h⁻¹ and the “Vz, Mean Value” [2] was 5.07 L/kg.
For `OC(CCN1CCCCC1)(c1ccccc1)C1CC2C=CC1C2` (stereo not drawn) [Biperiden], the “AUC, Value” [3, 10] is given as 62.8 ng·h/mL, the “CL, Value” [3, 10] is given as 24 mL/min/kg and the “K12, Value” [3, 10] is given as 0.1910 h⁻¹. The “K21, Value” [3, 10] was 0.06 h⁻¹, the “T1/2 Alpha, Value” [3, 10] was 1.5 h and the “T1/2 beta, Value” [3, 10] was 24.3 h. The “V1, Value” [3, 10] was 2.6 L/kg, the “Ka, Value” ([3]; Oral 4 mg) was 2.18 h⁻¹ and the clearance (clinical [4]) was 24.8 mL/min/kg. The half-life (clinical [4]; T1/2 Alpha) was 1.7 h and the half-life (clinical [4]; T1/2 beta) was 28.2 h.
In the case of `COC(=O)[C@H]1[C@@H](OC(=O)c2ccccc2)C[C@@H]2CC[C@H]1N2C` [Cocaine], the “A, Published parameter value” [5, 11] is given as 2.482 µg/mL, the “Alpha, Published parameter value” [5, 11] is given as 3.192 h⁻¹ and the “B, Published parameter value” [5, 11] is given as 1.997 µg/mL. For the same molecule, the “Beta, Published parameter value” [5, 11] was 0.505 h⁻¹, the “Conc (plasma concentration)” value ([5]; Time 0.08333333 hr) was 3868 ng/mL and the “Conc (plasma concentration)” value ([5]; Time 0.33333333 hr) was 2476 ng/mL. The “Conc (plasma concentration)” value ([5]; Time 0.65 hr) was 2031 ng/mL, the “Conc (plasma concentration)” value ([5]; Time 1 hr) was 1222 ng/mL and the “Conc (plasma concentration)” value ([5]; Time 2.13333333 hr) was 696 ng/mL. The “Conc (plasma concentration)” value ([5]; Time 3.2 hr) was 453 ng/mL, the “Conc (plasma concentration)” value ([5]; Time 4.16666667 hr) was 219 ng/mL and the “Conc (plasma concentration)” value ([5]; Time 5.15 hr) was 145 ng/mL. For the same molecule, the “Conc (plasma concentration)” value ([5]; Time 6.15 hr) was 94 ng/mL, the Alpha ([5]; IV bolus, Dose = 100 mg, X, Y) was 0.0135 min⁻¹ and 0.0172 min⁻¹ and 0.0147 min⁻¹ and the A [5, 12] was 860 ng/mL and 558 ng/mL and 1139 ng/mL. The Alpha [5, 12] was 0.0135 min⁻¹ and 0.0172 min⁻¹ and 0.0147 min⁻¹, the B ([5]; IV bolus, Dose = 200 mg, Sub-W) was 1997 ng/mL and the Beta ([5]; IV bolus, Dose = 200 mg, Sub-W) was 0.00842 min⁻¹. The Alpha ([5]; IV bolus, Dose = 200 mg, Z) was 0.0532 min⁻¹ and 0.00879 min⁻¹, the A [5, 13] was 2482 ng/mL and 1432 ng/mL and the Alpha [5, 13] was 0.0532 min⁻¹ and 0.00879 min⁻¹. The “A, Value” [5, 14] was 2482 ng/mL, the “Alpha, Value” [5, 14] was 0.05 min⁻¹ and the “B, Value” [5, 14] was 1997 ng/mL. For the same molecule, the Cmax ([5]; IVBolus 200 mg) was “(Cmax = 3868) ng/ml”, the “Alpha, Selected Value” ([6]; maximum over all subjects and doses 100, 200 mg (Rule 7)) was 0.0532 min⁻¹ and the “Beta, Selected Value” ([6]; maximum over all subjects and doses (Rule 7)) was 0.00842 min⁻¹.
For `COc1cc(NCc2ccc3nc(N)nc(N)c3c2C)cc(OC)c1OC` [Trimetrexate], the “K10, Converted value” ([7]; non-human primate) was 3.096 h⁻¹, the “K10, Selected Parameter Value” ([7]; non-human primate) was 0.0516 min⁻¹ and the “K12, Converted value” ([7]; non-human primates) was 0.87 h⁻¹. For the same molecule, the “K12, Selected Parameter Value” ([7]; non-human primates) was 0.0145 min⁻¹, the “K13, Converted value” ([7]; non-human primates) was 0.0075 h⁻¹ and the “K13, Selected Parameter Value” ([7]; non-human primates) was 0.000125 min⁻¹. For the same molecule, the “K21, Converted value” ([7]; non-human primates) was 1.296 h⁻¹, the “K21, Selected Parameter Value” ([7]; non-human primates) was 0.0216 min⁻¹ and the “K31, Converted value” ([7]; non-human primates) was 0.093 h⁻¹. The “K31, Selected Parameter Value” ([7]; non-human primates) was 0.00155 min⁻¹, the “V1, Converted value” ([7]; non-human primates) was 0.15 L/kg and the “V1, Selected Parameter Value” ([7]; non-human primates) was 0.15 L/kg. The “V2, Converted value” ([7]; non-human primates) was 0.079 L/kg, the “V2, Selected Parameter Value” ([7]; non-human primates) was 0.079 L/kg and the “cl, Converted value” ([7]; non-human primates) was 0.252 L/h. The clearance (in vivo) was 4.2 mL/min, the half-life (in vivo; T1/2 alpha, Converted value) was 0.305 h and the half-life (in vivo; T1/2 alpha, Selected Parameter Value) was 0.305 h. The half-life (in vivo; T1/2 beta, Converted value) was 1.43 h and the half-life (in vivo; T1/2 beta, Selected Parameter Value) was 1.43 h.
With `CCOC(=O)c1cncn1[C@H](C)c1ccccc1` [etomidate] the “A, Globally optimized Parameter 1” value [8, 15] was 0.2958 µg/mL, the “Alpha, Globally optimized Parameter 1” value [8, 15] was 12.67 h⁻¹ and the “B, Globally optimized Parameter 1” value [8, 15] was 0.1079 µg/mL. The “Beta, Globally optimized Parameter 1” value [8, 15] was 1.124 h⁻¹, the “C, Globally optimized Parameter 1” value [8, 15] was 0.02617 µg/mL and the “Gamma, Globally optimized Parameter 1” value [8, 15] was 0.1092 h⁻¹. For the same molecule, the “A, Globally optimized Parameter 2” value [8, 16] was 0.2529 µg/mL, the “Alpha, Globally optimized Parameter 2” value [8, 16] was 10.44 h⁻¹ and the “B, Globally optimized Parameter 2” value [8, 16] was 0.1149 µg/mL. For the same molecule, the “Beta, Globally optimized Parameter 2” value [8, 16] was 0.351 h⁻¹, the “C, Globally optimized Parameter 2” value [8, 16] was 0.005408 µg/mL and the “Gamma, Globally optimized Parameter 2” value [8, 16] was 0.1074 h⁻¹. For the same molecule, the “A, Globally optimized Parameter 3” value [8, 17] was 0.13 µg/mL, the “Alpha, Globally optimized Parameter 3” value [8, 17] was 5.539 h⁻¹ and the “B, Globally optimized Parameter 3” value [8, 17] was 0.1089 µg/mL. The “Beta, Globally optimized Parameter 3” value [8, 17] was 0.3627 h⁻¹, the “C, Globally optimized Parameter 3” value [8, 17] was 0.005084 µg/mL and the “Gamma, Globally optimized Parameter 3” value [8, 17] was 0.0375 h⁻¹. For the same molecule, the “A, Locally Optimized parameter 1” value [8, 18] was 0.3151 µg/mL, the “Alpha, Locally Optimized parameter 1” value [8, 18] was 11.49 h⁻¹ and the “B, Locally Optimized parameter 1” value [8, 18] was 0.1076 µg/mL. For the same molecule, the “Beta, Locally Optimized parameter 1” value [8, 18] was 0.8111 h⁻¹, the “C, Locally Optimized parameter 1” value [8, 18] was 0.01292 µg/mL and the “Gamma, Locally Optimized parameter 1” value [8, 18] was 0.03486 h⁻¹. The “A, Locally Optimized parameter 2” value [8, 19] was 0.3151 µg/mL, the “Alpha, Locally Optimized parameter 2” value [8, 19] was 11.49 h⁻¹ and the “B, Locally Optimized parameter 2” value [8, 19] was 0.1076 µg/mL. For the same molecule, the “Beta, Locally Optimized parameter 2” value [8, 19] was 0.8111 h⁻¹, the “C, Locally Optimized parameter 2” value [8, 19] was 0.01292 µg/mL and the “Gamma, Locally Optimized parameter 2” value [8, 19] was 0.03486 h⁻¹. The “A, Locally Optimized parameter 3” value [8, 20] was 0.3151 µg/mL, the “Alpha, Locally Optimized parameter 3” value [8, 20] was 11.49 h⁻¹ and the “B, Locally Optimized parameter 3” value [8, 20] was 0.1076 µg/mL. The “Beta, Locally Optimized parameter 3” value [8, 20] was 0.8111 h⁻¹, the “C, Locally Optimized parameter 3” value [8, 20] was 0.01292 µg/mL and the “Gamma, Locally Optimized parameter 3” value [8, 20] was 0.03486 h⁻¹. For the same molecule, the “A, Best Parameter/Best locally optimized value” [8, 21] was 0.3151 µg/mL, the “A, Initial value/globally optimized value” [8, 21] was 0.2703 µg/mL and the “Alpha, Best Parameter/Best locally optimized value” [8, 21] was 11.49 h⁻¹. The “Alpha, Initial value/globally optimized value” [8, 21] was 7.1437 h⁻¹, the “B, Best Parameter/Best locally optimized value” [8, 21] was 0.1076 µg/mL and the “B, Initial value/globally optimized value” [8, 21] was 0.07389 µg/mL. For the same molecule, the “Beta, Best Parameter/Best locally optimized value” [8, 21] was 0.8111 h⁻¹, the “Beta, Initial value/globally optimized value” [8, 21] was 0.3665 h⁻¹ and the “C, Best Parameter/Best locally optimized value” [8, 21] was 0.01292 µg/mL. For the same molecule, the “C, Initial value/globally optimized value” [8, 21] was 0.01092 µg/mL, the “Gamma, Best Parameter/Best locally optimized value” [8, 21] was 0.03486 h⁻¹ and the “Gamma, Initial value/globally optimized value” [8, 21] was 0.1479 h⁻¹. The “Conc (plasma concentration)” value ([9]; Time 0.067 hr) was 260 ng/mL, the “Conc (plasma concentration)” value ([9]; Time 0.133 hr) was 180 ng/mL and the “Conc (plasma concentration)” value ([9]; Time 0.25 hr) was 115 ng/mL. For the same molecule, the “Conc (plasma concentration)” value ([9]; Time 0.5 hr) was 88 ng/mL, the “Conc (plasma concentration)” value ([9]; Time 1 hr) was 59.9 ng/mL and the “Conc (plasma concentration)” value ([9]; Time 2 hr) was 32.5 ng/mL. For the same molecule, the “Conc (plasma concentration)” value ([9]; Time 3 hr) was 21.3 ng/mL, the “Conc (plasma concentration)” value ([9]; Time 4 hr) was 15.8 ng/mL and the “Conc (plasma concentration)” value ([9]; Time 5 hr) was 12.6 ng/mL. For the same molecule, the “Conc (plasma concentration)” value ([9]; Time 6 hr) was 11.4 ng/mL, the “Conc (plasma concentration)” value ([9]; Time 7 hr) was 10.5 ng/mL and the “Conc (plasma concentration)” value ([9]; Time 8 hr) was 9.9 ng/mL. For the same molecule, the “Conc (plasma concentration)” value ([9]; Time 9 hr) was 9.5 ng/mL, the “Conc (plasma concentration)” value ([9]; Time 10 hr) was 9.1 ng/mL and the “A, Published parameter value” ([9]; three compartment model) was 0.297 µg/mL. For the same molecule, the “Alpha, Published parameter value” ([9]; three compartment model) was 12.02 h⁻¹, the “B, Published parameter value” ([9]; three compartment model) was 0.117 µg/mL and the “Beta, Published parameter value” ([9]; three compartment model) was 0.935 h⁻¹. The “C, Published parameter value” ([9]; three compartment model) was 0.017 µg/mL and the “Gamma, Published parameter value” ([9]; three compartment model) was 0.064 h⁻¹.
